Laboratory results reported in publication PMC10907609, “Structural and functional characterization of the endogenous agonist for orphan receptor GPR3” (Cell Research, 2024).

Experiments:
GPR3 [1] = target: T1, GPR3 (Homo sapiens, UniProt P46089); experiment: cryo-EM structure ([…] Å), SPR, MS of co-purified ligand; GTP turnover on purified complex; EC50 from cell-based cAMP Glo-Sensor assay; parameters: GPR3–Gs–scFv16 complex; with Gs heterotrimer (scFv16-stabilised)
Target sequence in this assay (P46089 whole entry): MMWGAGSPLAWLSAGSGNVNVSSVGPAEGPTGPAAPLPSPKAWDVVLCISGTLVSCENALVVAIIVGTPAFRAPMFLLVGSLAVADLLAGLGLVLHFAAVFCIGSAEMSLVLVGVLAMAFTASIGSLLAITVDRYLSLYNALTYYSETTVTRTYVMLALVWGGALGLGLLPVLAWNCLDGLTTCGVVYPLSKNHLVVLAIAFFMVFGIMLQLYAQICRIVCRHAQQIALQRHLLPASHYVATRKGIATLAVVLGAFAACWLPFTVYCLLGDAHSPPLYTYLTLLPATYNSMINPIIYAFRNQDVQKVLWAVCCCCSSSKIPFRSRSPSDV
Target sequence in this assay (P63092 2-394 partner): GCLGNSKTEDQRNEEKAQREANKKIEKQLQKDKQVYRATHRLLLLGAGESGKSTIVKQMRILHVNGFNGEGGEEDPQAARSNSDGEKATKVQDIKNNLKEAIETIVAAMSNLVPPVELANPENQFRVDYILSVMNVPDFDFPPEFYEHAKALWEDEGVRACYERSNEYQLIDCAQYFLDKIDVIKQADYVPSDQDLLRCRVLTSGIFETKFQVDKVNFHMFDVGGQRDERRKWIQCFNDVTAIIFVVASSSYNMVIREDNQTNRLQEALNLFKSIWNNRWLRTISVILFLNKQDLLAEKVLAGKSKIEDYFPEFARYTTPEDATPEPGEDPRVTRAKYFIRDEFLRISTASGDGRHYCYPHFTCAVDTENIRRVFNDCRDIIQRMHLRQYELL
Target sequence in this assay (P62873 2-340 partner): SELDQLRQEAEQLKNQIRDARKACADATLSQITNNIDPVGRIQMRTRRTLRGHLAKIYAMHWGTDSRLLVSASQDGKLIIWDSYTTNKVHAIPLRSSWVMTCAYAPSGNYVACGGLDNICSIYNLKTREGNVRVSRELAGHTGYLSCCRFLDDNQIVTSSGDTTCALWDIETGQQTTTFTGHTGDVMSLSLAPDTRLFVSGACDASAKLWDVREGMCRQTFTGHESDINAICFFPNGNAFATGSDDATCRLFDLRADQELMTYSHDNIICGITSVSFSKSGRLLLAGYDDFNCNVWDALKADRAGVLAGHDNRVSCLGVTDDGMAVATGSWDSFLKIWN
Target sequence in this assay (P59768 2-68 partner): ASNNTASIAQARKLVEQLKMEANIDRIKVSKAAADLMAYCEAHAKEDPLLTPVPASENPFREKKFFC

GPR3 [2] = target: T1, GPR3; experiment: cell-based cAMP Glo-Sensor assay (no significant activity in purified GTP turnover assay)
Target sequence in this assay (P46089 whole entry): as the sequence (P46089 whole entry) above

Row | EC50 (GPR3 [1]) | EC50 (GPR3 [2]) | SMILES
1 | 2.5 µM |  | CCCCCCCC/C=C\CCCCCCCC(=O)NCCO [OEA, oleoylethanolamide]
2 |  | 5.6 µM | CCCCCCCC/C=C\CCCCCCCC(N)=O [oleamide]
